{
  "source": "patent US7022716B2",
  "about": "“Cyclic amine phenyl beta-3 adrenergic receptor agonists” (Wyeth, priority 2000, dated 2006)",
  "key": {"[1]": {"test_system": "β3 Knockout(KO) Mice", "assay": "Thermogenesis (Oxymax indirect calorimetry) in β3 knockout mice", "conditions": "percent increase in thermogenesis over baseline; female FVB β3 knockout mice; i.p. 0.1-20 mg/kg or oral 1.0-30 mg/kg"}, "[2]": {"test_system": "β3 Transgenic(Tg) Mice", "assay": "Thermogenesis (Oxymax indirect calorimetry) in β3 transgenic mice", "conditions": "percent increase in thermogenesis over baseline; female FVB β3 transgenic mice; i.p. 0.1-20 mg/kg or oral 1.0-30 mg/kg"}, "[3]": {"biological_target": "T1, human β3 adrenergic receptor (Homo sapiens, UniProt P13945)", "T1 construct": "Full length β3 AR clones (402 amino acids) containing the last 6 amino acids of hβ3-AR are prepared; expressed in transfected cells; host or cells: CHO (Chinese hamster ovary) cells", "T1 sequence (P13945 whole entry)": "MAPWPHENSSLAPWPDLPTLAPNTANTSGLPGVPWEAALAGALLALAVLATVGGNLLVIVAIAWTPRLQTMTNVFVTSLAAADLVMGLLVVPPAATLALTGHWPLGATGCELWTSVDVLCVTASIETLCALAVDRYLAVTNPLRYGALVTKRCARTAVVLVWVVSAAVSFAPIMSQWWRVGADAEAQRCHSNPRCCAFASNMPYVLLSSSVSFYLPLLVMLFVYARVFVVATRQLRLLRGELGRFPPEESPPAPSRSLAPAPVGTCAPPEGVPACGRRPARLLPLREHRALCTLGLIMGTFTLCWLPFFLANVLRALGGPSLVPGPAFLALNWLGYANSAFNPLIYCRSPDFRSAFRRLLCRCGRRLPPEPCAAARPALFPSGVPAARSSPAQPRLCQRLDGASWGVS", "assay": "cAMP (SPA) response in CHO cells transfected with human β3 adrenergic receptor", "format": "cell-based", "set-up": "key: fraction of maximal isoproterenol (10^-5 M) response", "conditions": "maximal response relative to maximal response of isoproterenol at 10^-5 M", "procedure,_shortened": "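Reactions were stopped with 0.2N HCl and neutralised, and cAMP was measured by SPA. Activity is expressed as percent of the maximal 10^−5 M isoproterenol response.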"}},
  "data": [
    {"smiles": "CCOC(=O)C(=Cc1ccc(N2CCC(NC[C@H](O)c3ccc(O)c(NS(C)(=O)=O)c3)CC2)cc1)C(=O)O", "note": "[Example 189, 2-(4-{4-[(2R)-2-Hydroxy-2-(4-hydroxy-3-methanesulfonylamino-phenyl)-ethylamino]-piperidin-1-yl}-benzylidene)-malonic acid monoethyl ester]", "values": [
      {"measurement": "Thermogenesis (KO mice)", "setting": "[1]", "result": "6 ± 3", "unit": "%"},
      {"measurement": "Thermogenesis (Tg mice)", "setting": "[2]", "result": "33 ± 7", "unit": "%"},
      {"measurement": "melting point", "result": "> 170 °C (dec.)"},
      {"measurement": "IA(β3)", "setting": "[3]", "result": 1.3}
    ]},
    {"smiles": "CCOC(=O)c1ccc(N2CCC(NC[C@H](O)c3ccc(O)c(NS(C)(=O)=O)c3)CC2)cc1", "note": "[Example 180, {4-[(2R)-2-Hydroxy-2-(4-hydroxy-3-methanesulfonylamino-phenyl)-ethylamino]-piperidin-1-yl}-benzoic acid ethyl ester]", "values": [
      {"measurement": "Thermogenesis (KO mice)", "setting": "[1]", "result": "9 ± 5", "unit": "%"},
      {"measurement": "Thermogenesis (Tg mice)", "setting": "[2]", "result": "42 ± 4", "unit": "%"},
      {"measurement": "IA(β3)", "setting": "[3]", "result": 1}
    ]},
    {"smiles": "CS(=O)(=O)Nc1cc([C@@H](O)CNC2CCN(c3ccc(C(=O)O)cc3)CC2)ccc1O", "note": "[Example 186, 4-{4-[(2R)-2-Hydroxy-2-(4-hydroxy-3-methanesulfonylamino-phenyl)-ethylamino]-piperidin-1-yl}-benzoic acid]", "values": [
      {"measurement": "Thermogenesis (KO mice)", "setting": "[1]", "result": "16 ± 7", "unit": "%"},
      {"measurement": "Thermogenesis (Tg mice)", "setting": "[2]", "result": "77 ± 12", "unit": "%"},
      {"measurement": "melting point", "result": "> 85 °C (dec.)"},
      {"measurement": "IA(β3)", "setting": "[3]", "result": 1.1}
    ]},
    {"smiles": "CS(=O)(=O)Nc1cc(C(O)CNC2CCN(c3ccc(CC4SC(=O)NC4=O)cc3)CC2)ccc1O", "note": "[Example 84, N-[5-((2R)-2-{1-[4-(2,4-Dioxo-thiazolidin-5-ylmethyl}-phenyl]-piperidin-4-ylamino}-1-hydroxy-ethyl)-2-hydroxy-phenyl]-methanesulfonamide]", "values": [
      {"measurement": "Thermogenesis (KO mice)", "setting": "[1]", "result": "−2 ± 4", "unit": "%"},
      {"measurement": "Thermogenesis (Tg mice)", "setting": "[2]", "result": "30 ± 4", "unit": "%"},
      {"measurement": "melting point", "result": "> 180 °C (dec.)"}
    ]},
    {"smiles": "CS(=O)(=O)Nc1cc(OC[C@@H](O)CNC2CCN(c3ccc(CC4SC(=O)NC4=O)cc3)CC2)ccc1O", "note": "(stereo partly drawn) [Example 92, N-[5-((2S)-3-{1-[4-(2,4-Dioxo-thiazolidin-5-ylmethyl)-phenyl]-piperidin-4-ylamino}-2-hydroxy-propoxy)-2-hydroxy-phenyl]-methanesulfonamide]", "values": [
      {"measurement": "melting point", "result": "> 70 °C (dec.)"},
      {"measurement": "IA(β3)", "setting": "[3]", "result": 1.1}
    ]},
    {"smiles": "CS(=O)(=O)Nc1cc([C@@H](O)CNC2CCN(c3ccc(/C=C/C(=O)O)cc3)CC2)ccc1O", "note": "[Example 210, (2E)-3-(4-{4-[(2R)-2-Hydroxy-2-(4-hydroxy-3-methanesulfonylamino-phenyl)-ethylamino]-piperidin-1-yl}-phenyl)-acrylic acid]", "values": [
      {"measurement": "melting point", "result": 220, "unit": "°C"},
      {"measurement": "IA(β3)", "setting": "[3]", "result": 1.36}
    ]},
    {"smiles": "N=C1NC(=O)C(Cc2ccc(N3CCC(NC[C@H](O)COc4cccc5[nH]c(=O)[nH]c45)CC3)cc2)S1", "note": "(stereo partly drawn) [Example 89, 4-((2S)-2-Hydroxy-3-{1-[4-(2-imino-4-oxo-thiazolidin-5-ylmethyl)-phenyl]-piperidin-4-ylamino}-propoxy)-1,3-dihydro-benzoimidazol-2-one]", "values": [
      {"measurement": "melting point", "result": "> 155 °C (dec.)"},
      {"measurement": "IA(β3)", "setting": "[3]", "result": 1.1}
    ]},
    {"smiles": "CS(=O)(=O)Nc1cc([C@@H](O)CNC2CCN(c3ccc(NC(=O)CCC4CCCC4)cc3)CC2)ccc1O", "note": "[Example 393, 3-Cyclopentyl-N-(4-{4-[((2R)-2-hydroxy-2-{4-hydroxy-3-[(methylsulfonyl)amino]phenyl}-ethyl)amino]-1-piperidinyl}phenyl)propanamide]", "values": [
      {"measurement": "melting point", "result": "82 to 90", "unit": "°C"},
      {"measurement": "IA(β3)", "setting": "[3]", "result": 1}
    ]},
    {"smiles": "CCCCN(CC(=O)OCC)C(=O)c1ccc(N2CCC(NC[C@H](O)c3ccc(O)c(NS(C)(=O)=O)c3)CC2)cc1", "note": "[Example 207, [Butyl-(4-{4-[(2R)-2-hydroxy-2-(4-hydroxy-3-methanesulfonylamino-phenyl)-ethylamino]-piperidin-1-yl}-benzoyl)-amino]-acetic acid ethyl ester]", "values": [
      {"measurement": "melting point", "result": "> 60 °C (dec.)"},
      {"measurement": "IA(β3)", "setting": "[3]", "result": 1}
    ]},
    {"smiles": "CS(=O)(=O)Nc1cc(C(O)CNC2CCN(c3ccc(CC4NC(=O)NC4=O)cc3)CC2)ccc1O", "note": "(stereo not drawn) [Example 87, N-[5-(2-{1-[4-(2,5-Dioxo-imidazolidin-4-ylmethyl)-phenyl]-piperidin-4-ylamino}-1-hydroxy-ethyl)-2-hydroxy-phenyl]-methanesulfonamide]", "values": [
      {"measurement": "melting point", "result": "> 105 °C (dec.)"},
      {"measurement": "IA(β3)", "setting": "[3]", "result": 1}
    ]},
    {"smiles": "O=C1NC(=S)SC1=Cc1ccc(N2CCC(NC[C@H](O)COc3ccccc3)CC2)cc1", "note": "[Example 72, 5-{4-[4-((2S)-2-Hydroxy-3-phenoxy-propylamino)-piperidin-1-yl]-benzylidene}-2-thioxo-thiazolidin-4-one]", "values": [
      {"measurement": "melting point", "result": "> 220 °C (dec.)"},
      {"measurement": "IA(β3)", "setting": "[3]", "result": 0.68}
    ]},
    {"smiles": "CS(=O)(=O)Nc1cc([C@@H](O)CNC2CCN(c3ccc(CC4SC(=O)NC4=O)cc3)CC2)ccc1Cl", "note": "(stereo partly drawn) [Example 95, N-[2-Chloro-5-((1R)-2-{1-[4-(2,4-dioxo-thiazolidin-5-ylmethyl)-phenyl]-piperidin-4-ylamino}-1-hydroxy-ethyl)-phenyl]-methanesulfonamide]", "values": [
      {"measurement": "melting point", "result": "> 105 °C (dec.)"},
      {"measurement": "IA(β3)", "setting": "[3]", "result": 0.59}
    ]},
    {"smiles": "O=C1NC(=O)C(Cc2ccc(N3CCC(NC[C@@H](O)c4cccnc4)CC3)cc2)S1", "note": "(stereo partly drawn) [Example 131, 5-{4-[4-((2S)-2-Hydroxy-2-pyridin-3-yl-ethylamino)-piperidin-1-yl]-benzyl}-thiazolidine-2,4-dione]", "values": [
      {"measurement": "melting point", "result": "> 88 °C (dec.)"},
      {"measurement": "IA(β3)", "setting": "[3]", "result": 0.52}
    ]},
    {"smiles": "CS(=O)(=O)Nc1cc([C@@H](O)CNC2CCN(c3ccc(C(N)=O)cc3)CC2)ccc1O", "note": "[Example 190, 4-{4-[(2R)-2-Hydroxy-2-(4-hydroxy-3-methanesulfonylamino-phenyl)-ethylamino]-piperidin-1-yl}-benzamide]", "values": [
      {"measurement": "melting point", "result": "> 75 °C (dec.)"},
      {"measurement": "IA(β3)", "setting": "[3]", "result": 1.12}
    ]},
    {"smiles": "CS(=O)(=O)Nc1cc(C(O)CNC2CCN(c3ccc(C=C4SC(=O)NC4=O)cc3Br)CC2)ccc1O", "note": "(stereo not drawn) [Example 70, N-[5-(2-{1-[2-Bromo-4-(2,4-dioxo-thiazolidin-5-ylidenemethyl)-phenyl]-piperidin-4-ylamino}-1-hydroxy-ethyl)-2-hydroxy-phenyl]-methanesulfonamide]", "values": [
      {"measurement": "melting point", "result": "> 200", "unit": "°C"},
      {"measurement": "IA(β3)", "setting": "[3]", "result": 1.2}
    ]}
  ]
}
